{"source": "patent US20230310330A1", "about": "“PEPTIDIC OLIGOMERS AND METHODS OF USING THE SAME” (BIOVENTURES, LLC, priority 2022, published 2023)", "key": {"vacuolar ATPase": {"tested_on": "vacuolar ATPase", "assay": "Bafilomycin A1 block of FITC-labeled CPP translocation, flow cytometry", "type": "cell-based", "excerpt": "FIG. 15: Bafilomycin Al blocks CPP translocation. (A) FITC-labeled B6 and G6 are easily detected by flow cytometry.\nVacuolar ATPase aids in the transport to the interior of acidic organelles and BafA1 efficiently neutralizes the luminal pH, inhibits acidic hydrolases, and impairs the fusion among acidic organelles."}, "4T1 breast cancer cells": {"tested_on": "4T1 breast cancer cells", "assay": "In vitro cell viability assay, CellTiter-Glo, 72 hours", "type": "cell-based, mouse", "conditions": "4T1 cells", "description": "The assay was run for 72 hours with the CellTiter-Glo assay to determine cell viability."}, "[1]": {"tested_on": "mouse 4T1 breast cancer cells", "quoted_text": "Cells were incubated with varying concentrations for 48 hours, followed by CCK8 reagent. The absorbance at 450 nm was recorded.\nBiocompatibility of the peptidic oligomers was characterized in a toxicity assay of the empty beta and gamma chains performed with mouse 4T1 breast cancer cells (FIG. 4). […] Cells were incubated with varying concentrations for 48 hours, followed by CCK8 reagent. The absorbance at 450 nm was recorded."}}, "note": "Read-outs that look alike come from different tables or passages of the source.", "data": [{"molecule": "CO/C1=C\\C(C)=C\\[C@@H](C)[C@@H](O)[C@@H](C)C/C(C)=C/C=C/[C@H](OC)[C@@H]([C@@H](C)[C@@H](O)[C@H](C)[C@@]2(O)C[C@@H](O)[C@H](C)[C@@H](C(C)C)O2)OC1=O", "note": "[Bafilomycin A1]", "values": [{"measurement": "effect on FITC-labeled CPP binding and translocation (FITC signal)", "setting": "vacuolar ATPase", "result": "blocked FITC-labeled CPP"}, {"measurement": "effect on FITC-labeled CPP binding and translocation (FITC signal)", "setting": "vacuolar ATPase; listed as BafA1", "result": "blocks B6-FITC binding and translocation"}]}, {"molecule": "C[S+]([O-])CCCCN=C=S", "note": "(centres unmarked) [sulforaphane, D, L sulforaphane]", "values": [{"measurement": "concentration showing significant activity", "setting": "4T1 breast cancer cells", "result": 10, "unit": "mM"}]}, {"molecule": "CC(C)(C)OC(=O)N[C@@H](CNC(=O)[C@H](CNC(=O)[C@H](CNC(=O)[C@H](CNC(=O)[C@H](CNC(=O)[C@H](CN)NC(=O)OC(C)(C)C)NC(=O)OC(C)(C)C)NC(=O)OC(C)(C)C)NC(=O)OC(C)(C)C)NC(=O)OC(C)(C)C)C(=O)O", "note": "[B6]", "values": [{"measurement": "cellular toxicity (number of viable cells)", "setting": "[1]", "result": "do not display cellular toxicity"}]}, {"molecule": "CC(C)(C)OC(=O)N[C@@H](CCNC(=O)[C@H](CCNC(=O)[C@H](CCNC(=O)[C@H](CCNC(=O)[C@H](CCNC(=O)[C@H](CCN)NC(=O)OC(C)(C)C)NC(=O)OC(C)(C)C)NC(=O)OC(C)(C)C)NC(=O)OC(C)(C)C)NC(=O)OC(C)(C)C)C(=O)O", "note": "[G6]", "values": [{"measurement": "cellular toxicity (number of viable cells)", "setting": "[1]", "result": "do not display cellular toxicity"}]}]}
